{"source": "paper PMC11678782", "about": "“The Antioxidant and Anti-Inflammatory Activities of the Methanolic Extract, Fractions, and Isolated Compounds from Eriosema montanum Baker f. (Fabaceae)” (Molecules, 2024)", "key": {"[1]": {"assay": "DPPH radical scavenging assay", "conditions": "30 min, 517 nm", "description": "(§1) Three in vitro antioxidant assays, namely, 2,2′-azinobis-(3-ethylbenzothiazoline-6-sulfonic acid (ABTS), 2,2′-diphenyl-1-picrylhydrazyl (DPPH), and ferric ion reducing antioxidant power (FRAP), were used to determine the antioxidant activity according to methods previously reported. Ascorbic acid (0 to 200 μg/mL) was used as positive control in these experiments, and Formula (1) below allowed us to evaluate the percentage of radical scavenging capacity. The inhibitory concentration (IC50) values were evaluated by plotting a nonlinear graph of percentage radical scavenging capacity versus logarithm of tested concentrations. Scavenging capacity (%) = [(A0 − A1)/A0] × 100(1) where A0 is absorbance of negative control, and A1 is absorbance of extract with ABTS^•+ radical cation.\nTo be able to determine the DPPH^• scavenging capacity of EMME, we performed a serial dilution of 40 μL of the sample (1 mg/mL) with methanol on a 96-well microtiter plate, with 160 μL of solution of DPPH^• thereafter (25 μg/mL). The incubation at 25 °C in the dark was performed after 30 min, with the absorbance values measured at 517 nm on a SpectraMax iD3 multi-mode microplate against a blank (extract plus methanol without DPPH^•). […]. Methanol with DPPH^• served as the negative control. Using Formula (1), the DPPH scavenging capability was calculated at the measured concentrations above, and as previously enumerated, the IC50 values were also calculated, as indicated in the previously described procedure.\n(§2) The IC50 values were calculated for each biological experiment using the nonlinear regression curve of the % inhibitory activity versus the logarithm (log10) of the various tested concentrations using GraphPad Prism 6.0 software (GraphPad Software, Inc., San Diego, CA, USA). The data are shown as mean ⁱ SEM (standard error of the mean) values, and all biological experiments were conducted in triplicate (n = 3). The statistical analysis was conducted using GraphPad Prism 6.0 software (GraphPad Software, Inc., San Diego, CA, USA). One-way analysis of variance (ANOVA) was used to compare the data across the tested samples and/or controls, and Student–Newman–Keuls or Dunnett’s tests were then performed. A p-value of less than 0.05 indicated a significant difference in the results."}, "[2]": {"assay": "Ferric reducing antioxidant power (FRAP) assay", "conditions": "relative to 200 µg/mL gallic acid, 700 nm", "description": "as §1\nThe generally used and almost standard method for performing the FRAP test is that developed by Benzie and Strain [15]. Indeed, the antioxidant power is determined in a colorimetric reaction linked to redox in which an intense blue-colored ferroustripyridyltriazine (Fe^2+-TPTZ) complex is obtained via reduction at a low pH of ferrictripyridyltriazine (Fe^3+-TPTZ). The incubation of a quantity of 50 μL of EMME (1.56 to 200 μg/mL) or 200 μg/mL of gallic acid (Merck, Lethabong, South Africa) on a 96-well plate was carried out with 50 μL of 1% potassium ferricyanide (prepared in 0.2 M of sodium phosphate buffer, pH 6.6) for 30 min at 50 °C. Then, 50 μL of 10% trichloroacetic acid (TCA), 40 μL of distilled water, and 10 μL of 0.1% ferric chloride were added, respectively. The absorbance values were recorded on a blank (extract plus sodium phosphate buffer) at 700 nm on a SpectraMax iD3 multi-mode microplate reader (Molecular Devices, San Jose, CA, USA); the FRAP activity was indicated as inhibition percentage of 200 μg/mL of gallic acid.\nas §2"}, "[3]": {"system": "LPS-stimulated RAW 264.7 cells", "assay": "NO production inhibition in LPS-stimulated RAW 264.7 cells (Griess)", "format": "cell-based, murine", "conditions": "for IC50: Mus musculus, RAW264.7, RAW 264.7, 2 h pre-treatment, 500 ng/mL LPS 24 h; for Inhibition of LPS-induced NO production: RAW 264.7, single-concentration test at 100 µg/mL, vs control cells", "description": "[…] in a humidified environment containing 5% CO2 and 95% air. For NO and ROS production inhibition assays, the cytotoxic effect of tested samples at 100 µg/mL after 24 h of exposure was initially measured on RAW 264.7 cells (10,000 cells per well) using the standard MTT assay. Then, for NO production inhibition assay, RAW 264.7 cells were pre-treated with tested samples at 100 µg/mL for 2 h followed by addition of culture medium containing 500 ng/mL of lipopolysaccharide (LPS) (Merck, Darmstadt, Germany). After 24 h of incubation under standard cell-culture conditions, NO released was measured in cell supernatants using the Griess reagent (Sigma Aldrich, Darmstadt, Germany), and a SpectraMax iD3 multi-mode microplate reader (Molecular Devices, San Jose, CA, USA) was used to capture the absorbance readings at 540 nm. The ability of each tested material to reduce nitric oxide synthesis by LPS-stimulated RAW 264.7 macrophages in comparison to the negative control (cells treated with DMSO at 0.5% and LPS without extract) was used to calculate the percentage of NO production inhibition.\nas §2"}, "[4]": {"assay": "ABTS radical scavenging assay", "conditions": "5 min, 734 nm", "description": "as §1\nSpecifically, 2.45 mM of potassium persulfate and 7 mM of ABTS solution were dissolved in methanol and combined to create the ABTS^•+ radical cation, which was stored at 25 °C for a minimum of 16 h. At 734 nm, the absorbance of the generated ABTS^•+ was measured using a SpectraMax iD3 multi-mode microplate reader (Molecular Devices, San Jose, CA, USA) and calibrated to 0.70 ± 0.02. After carefully diluting 40 μL of EMME (1 mg/mL) with methanol and adding 160 μL of (ABTS^•+) radical cation, the 96-well microtiter plate was left to sit at 25 °C in the dark for five minutes. Using a SpectraMax iD3 multi-mode microplate reader, the absorbance values were measured at 734 nm against the blank (extract plus methanol without ABTS^•+). A nonlinear curve representing the percentage of ABTS^•+ scavenging capacity vs. a logarithm of tested concentrations was then plotted to determine the inhibitory concentration (IC50) values.\nas §2"}}, "note": "Entries after “also recorded” stand apart in the source; their conditions may differ."}
{"smiles": "CC[C@H](/C=C/[C@@H](C)[C@H]1CC[C@H]2[C@@H]3CC=C4C[C@@H](O[C@@H]5O[C@H](CO)[C@@H](O)[C@H](O)[C@H]5O)CC[C@]4(C)[C@H]3CC[C@]12C)C(C)C", "note": "[Compound 7, stigmasterol glucoside]", "values": [{"measurement": "IC50 DPPH", "setting": "[1]", "result": ">100", "unit": "mg/L"}, {"measurement": "IC50 FRAP", "setting": "[2]", "result": ">200", "unit": "mg/L"}, {"measurement": "IC50", "setting": "[3]", "result": "> 100", "unit": "mg/L"}, {"measurement": "IC50 ABTS", "setting": "[4]", "result": ">100", "unit": "mg/L"}]}
{"smiles": "CCCCCCCCCCCCCCCC", "note": "[Compound 1, n-hexadecane]", "values": [{"measurement": "IC50 DPPH", "setting": "[1]", "result": ">100", "unit": "mg/L"}, {"measurement": "IC50 FRAP", "setting": "[2]", "result": ">200", "unit": "mg/L"}, {"measurement": "IC50", "setting": "[3]", "result": "> 100", "unit": "mg/L"}, {"measurement": "IC50 ABTS", "setting": "[4]", "result": ">100", "unit": "mg/L"}]}
{"smiles": "CO[C@H]1[C@H](O)[C@@H](O)[C@@H](O)[C@H](O)[C@@H]1O", "note": "[Compound 6, D-pinitol]", "values": [{"measurement": "IC50 DPPH", "setting": "[1]", "result": ">100", "unit": "mg/L"}, {"measurement": "IC50 FRAP", "setting": "[2]", "result": ">200", "unit": "mg/L"}, {"measurement": "IC50", "setting": "[3]", "result": "> 100", "unit": "mg/L"}, {"measurement": "IC50 ABTS", "setting": "[4]", "result": ">100", "unit": "mg/L"}]}
{"smiles": "O=c1c2c(O)cc(O)cc2oc2oc3cc(O)ccc3c12", "note": "[Compound 4, lupinalbin A]", "values": [{"measurement": "IC50 DPPH", "setting": "[1]", "result": ">100", "unit": "mg/L"}, {"measurement": "IC50 FRAP", "setting": "[2]", "result": ">200", "unit": "mg/L"}, {"measurement": "IC50", "setting": "[3]", "result": "> 100", "unit": "mg/L"}, {"measurement": "IC50 ABTS", "setting": "[4]", "result": ">100", "unit": "mg/L"}]}
{"smiles": "CCCCCCCCCCCCCCCCCCCCCCCO", "note": "[Compound 3, tricosan-1-ol]", "values": [{"measurement": "IC50 DPPH", "setting": "[1]", "result": ">100", "unit": "mg/L"}, {"measurement": "IC50 FRAP", "setting": "[2]", "result": ">200", "unit": "mg/L"}, {"measurement": "IC50", "setting": "[3]", "result": "> 100", "unit": "mg/L"}, {"measurement": "IC50 ABTS", "setting": "[4]", "result": ">100", "unit": "mg/L"}]}
{"smiles": "O=c1c(-c2ccc(O)cc2)coc2cc(O[C@@H]3O[C@H](CO)[C@@H](O)[C@H](O)[C@H]3O)cc(O)c12", "note": "[Compound 5, genistin]", "values": [{"measurement": "IC50 DPPH", "setting": "[1]", "result": "99.89 ± 1.26", "unit": "mg/L"}, {"measurement": "IC50 DPPH", "setting": "[1]; listed as genistin", "result": 91.02, "unit": "mg/L"}, {"measurement": "IC50 FRAP", "setting": "[2]", "result": ">200", "unit": "mg/L"}, {"measurement": "IC50", "setting": "[3]", "result": "66 ± 4.21", "unit": "mg/L"}, {"measurement": "Inhibition of LPS-induced NO production", "setting": "[3]", "result": "significantly inhibited"}, {"measurement": "Inhibition of LPS-induced NO production", "setting": "[3]; listed as Genistin (5)", "result": "able to inhibit"}, {"measurement": "Inhibition of LPS-induced NO production", "setting": "[3]; listed as genistin (5)", "result": "moderate activity; also recorded: moderately effective"}, {"measurement": "IC50 ABTS", "setting": "[4]", "result": "91.02 ± 1.33", "unit": "mg/L"}, {"measurement": "IC50 ABTS", "setting": "[4]; listed as genistin", "result": 99.89, "unit": "mg/L"}]}
